Results reported in patent US5011825A, “Peptides influencing diuresis and natriuresis, a process for their preparation, agents containing them, and their use” (Hoechst Aktiengesellschaft, priority 1986, dated 1991).
code Z = not defined here

System: rat
Assay: Diuretic, natriuretic and kaliuretic action, Experimental Design 1 (anesthetized rats, continuous NaCl infusion, i.v. bolus)
Assay type: in vivo
Conditions: for Urine / K^+ / Na^+: collection period 90 min; for Urine: control 1.267; for K^+: control 29.5; for Na^+: control 65.2; for Type of action on diuresis, natriuresis and kaliuresis (in words): judged from the data against control
Method: A. […]
Experimental Design 1: The rats were anesthetized with 0.1 ml of 10% strength thiobutabarbital sodium/100 g of body weight i.p. They received an NaCl infusion from 60 min before administration of the substance and continuing during the experiment (2.5 ml of a 0.9% strength NaCl solution .h^-1.0.1 kg^-1 body weight). The test substance was administered as an i.v. bolus in 0.5 ml of a 0.9% strength solution/100 g of body weight.

Row | Substance | Urine (dose 1 mg/kg rat i.v. bolus) [mL/kg] | K^+ (dose 1 mg/kg rat i.v. bolus) [µmol/kg] | Na^+ (dose 1 mg/kg rat i.v. bolus) [µmol/kg] | Type of action on diuresis, natriuresis and kaliuresis (in words) | Urine (dose 1 μg/kg i.v. bolus) [mL/kg] | K^+ (dose 1 μg/kg i.v. bolus) [µmol/kg] | Na^+ (dose 1 μg/kg i.v. bolus) [µmol/kg]
1 | H-RIFRI-OH [H-Arg-Ile-Phe-Arg-Ile-OH] | 2.00 | 68.3 | 211.0 |  |  |  | 
2 | H-RILRI-OH [H-Arg-Ile-Leu-Arg-Ile-OH] | 2.03 | 50.1 | 149.8 |  |  |  | 
3 | H-RIWRI-OH [H-Arg-Ile-Trp-Arg-Ile-OH] | 0.67 | 57.5 | 112.8 |  |  |  | 
4 | H-RPVKV-OH [H-Arg-Pro-Val-Lys-Val-OH] | 0.91 | 28.2 | 155.7 | potassium-retaining natriuretics |  |  | 
5 | Z-Arg-Ile-Asp(OtBu)-Arg-Ile-ol |  |  |  | antidiuretics with a natriuretic action | 0.79 | 27.8 | 118.4
6 | Z-Arg-Ile-Trp-Arg-Ile-OMe ({code Z}-RIWRI-OMe; reading uncertain; also: printed as Z-Arg-Ile-Trp-Arg-Ile-OMe) | 1.16 | 46.2 | 152.5 |  |  |  | 
